Results: patent US12310975B2, “Modulators of BCL6 proteolysis and associated methods of use” (Arvinas Operations, Inc., priority 2019, dated 2025)

Biological target: BCL6 (Homo sapiens (Human), UniProt P41182)
Assay: Immunofluorescence high content imaging of BCL6 degradation in T47D cells
Format: cell-based
Conditions: class symbols A-D, read-out: EC50 (nM)*
Procedure: Immunofluorescence Protocol for High Cotent Imaging of BCL6
T47D cells were seeded in 100 μl volume of RPMI1640-10% FBS in a 96-well black/clear bottom plates for adherent lines (Corning #3904).
Day 1. T47D breast cancer epithelial cells were seeded at a density so that confluence is ˜70-90% at endpoint. Cells were seeded at 7K/0.1 ml/well the morning prior to the addition of exemplary bifunctional degradation compounds.
Day 2. Prepare an 11 point 3-fold serial dilution of exemplary bifunctional compound in DMSO and aliquot an appropriate volume to cell growth media to generate a 2× final concentration of exemplary bifunctional compound. Add an equal volume (0.1 ml) of 2× exemplary bifunctional compound/media mix to previously plated cells, for a final top concentration in aqueous cell growth media of 0.1 or 1 μM. Incubate for 3 days at 37° C., 5% CO2.
Day 5 Immunofluorescence. Discard cell media. Wash wells with 200 μl of room temperature phosphate-buffered saline (PBS). Prepared 4% paraformaldehyde (PFA) from 16% PFA (Electron Microscopy Sciences #15710) using 1×PBS. Fifty μl of 4% PF was added to each well and incubate for 15 minutes at room temperature to fix the cells. The PFA was aspirated and the cells washed twice with PBS (200 μl)).
Prepared 0.1% Triton X-100 in PBS using 10% triton X-100 stock. The cells were permeabilized by adding 100 ul of the 0.1% Triton X-100 in PBS to each well to permeabilize cells and incubating at room temperature for 15 minutes. Cells were washed twice with PBS.
Prepared 3% BSA/PBS (from Thermofisher #37515 Blocker BSA in TBS, 10%), and 100 ul was added to each well. The cells were incubated for at least 1 hour at room temperature.
Prepared 1% BSA/PBS using Blocker BSA/PBS, and the 3% BSA/PBS removed from the wells.
For no primary antibody controls, 50 μl 1% BSA/PBS was added.
Primary antibody (BCL6 Rb Ab, CST-14895, Cell Signaling) was diluted 1:300 in 1% BSA/PBS using Blocker BSA/PBS.
Fifty μl of primary antibody added to all remaining wells (i.e., all wells other than the primary antibody controls) and the cells were incubated overnight at 4° C. with slow orbital movement.
Day 6. Contents of the wells was removed and the cells washed four times with 200 ul PBS. 1% BSA/PBS was prepared using Blocker BSA in PBS.
Diluted secondary antibody goat anti-Rb IgG Alexa-488 1:1000, and cell mask-Alexa-647 1:3000 in 1% BSA/PBS in the same mix. Add 50 μl to each well and incubate at room temperature for 1 hour in the dark.
Cells were washed three times with 200 ul PBS, and then incubated for 10 minutes with 100 ul Hoechst dye at 1 μg/mL (20 mM stock) to stain cell nuclei. Wells were then washed with 200 μl PBS, and 100 ul of PBS was added to each well and the plate covered plate with a plastic opaque cover. Plates were stored at 4° C. and covered in aluminum foil until imaged.
Plates were equilibrated to room temperature prior to reading. The bottom of the plate was wiped with 70% isopropanol immediately prior to imaging.
10×, 4 fields/well, include Top hat smoothing in the analysis protocol.

Compound | DC50 [nM]
CNC(=O)COc1cc2cc(Nc3nc(N4CCC(OCCOCCOCCOCCOc5ccc6c(c5)CN(C5CCC(=O)NC5=O)C6=O)CC4)ncc3Cl)ccc2n(C)c1=O (stereo not drawn) [compound 59, 2-((6-((5-chloro-2-(4-(2-(2-(2-(2-((2-(2,6-dioxopiperidin-3-yl)-1-oxoisoindolin-5-yl)oxy)ethoxy)ethoxy)ethoxy)ethoxy)piperidin-1-yl)pyrimidin-4-yl)amino)-1-methyl-2-oxo-1,2-dihydroquinolin-3-yl)oxy)-N-methylacetamide] | > 100
CNC(=O)COc1cc2cc(Nc3nc(N4CCC(OCCOCCOCCOCCOc5ccc6c(c5)C(=O)N(C5CCC(=O)NC5=O)C6=O)CC4)ncc3Cl)ccc2n(C)c1=O (stereo not drawn) [compound 60, 2-((6-((5-chloro-2-(4-(2-(2-(2-(2-((2-(2,6-dioxopiperidin-3-yl)-1,3-dioxoisoindolin-5-yl)oxy)ethoxy)ethoxy)ethoxy)ethoxy)piperidin-1-yl)pyrimidin-4-yl)amino)-1-methyl-2-oxo-1,2-dihydroquinolin-3-yl)oxy)-N-methylacetamide] | > 100
CNC(=O)COc1cc2cc(Nc3nc(N4CCC(OCCOCCOc5ccc6c(c5)CN(C5CCC(=O)NC5=O)C6=O)CC4)ncc3Cl)ccc2n(C)c1=O (stereo not drawn) [compound 61, 2-((6-((5-chloro-2-(4-(2-(2-((2-(2,6-dioxopiperidin-3-yl)-1-oxoisoindolin-5-yl)oxy)ethoxy)ethoxy)piperidin-1-yl)pyrimidin-4-yl)amino)-1-methyl-2-oxo-1,2-dihydroquinolin-3-yl)oxy)-N-methylacetamide] | 10 to 50
CNC(=O)COc1cc2cc(Nc3nc(N4CCC(OCCOCCOc5ccc6c(c5)C(=O)N(C5CCC(=O)NC5=O)C6=O)CC4)ncc3Cl)ccc2n(C)c1=O (stereo not drawn) [compound 63, 2-((6-((5-chloro-2-(4-(2-(2-((2-(2,6-dioxopiperidin-3-yl)-1,3-dioxoisoindolin-5-yl)oxy)ethoxy)ethoxy)piperidin-1-yl)pyrimidin-4-yl)amino)-1-methyl-2-oxo-1,2-dihydroquinolin-3-yl)oxy)-N-methylacetamide] | 10 to 50
CNC(=O)COc1cc2cc(Nc3nc(N4CCC(OCCOCCOCCOCCOCCOc5ccc6c(c5)C(=O)N(C5CCC(=O)NC5=O)C6=O)CC4)ncc3Cl)ccc2n(C)c1=O (stereo not drawn) [compound 64, 2-((6-((5-chloro-2-(4-((14-((2-(2,6-dioxopiperidin-3-yl)-1,3-dioxoisoindolin-5-yl)oxy)-3,6,9,12-tetraoxatetradecyl)oxy)piperidin-1-yl)pyrimidin-4-yl)amino)-1-methyl-2-oxo-1,2-dihydroquinolin-3-yl)oxy)-N-methylacetamide] | > 100
CNC(=O)COc1cc2cc(Nc3nc(N4CCC(OCCOCCOCCOc5ccc6c(c5)CN(C5CCC(=O)NC5=O)C6=O)CC4)ncc3Cl)ccc2n(C)c1=O (stereo not drawn) [compound 65, 2-((6-((5-chloro-2-(4-(2-(2-(2-((2-(2,6-dioxopiperidin-3-yl)-1-oxoisoindolin-5-yl)oxy)ethoxy)ethoxy)ethoxy)piperidin-1-yl)pyrimidin-4-yl)amino)-1-methyl-2-oxo-1,2-dihydroquinolin-3-yl)oxy)-N-methylacetamide] | > 100
CNC(=O)COc1cc2cc(Nc3nc(N4CCC(OCCOCCOCCOCCNc5cccc6c5C(=O)N(C5CCC(=O)NC5=O)C6=O)CC4)ncc3Cl)ccc2n(C)c1=O (stereo not drawn) [compound 66, 2-((6-((5-chloro-2-(4-(2-(2-(2-(2-((2-(2,6-dioxopiperidin-3-yl)-1,3-dioxoisoindolin-4-yl)amino)ethoxy)ethoxy)ethoxy)ethoxy)piperidin-1-yl)pyrimidin-4-yl)amino)-1-methyl-2-oxo-1,2-dihydroquinolin-3-yl)oxy)-N-methylacetamide] | > 100
CNC(=O)COc1cc2cc(Nc3nc(N4CCC(OCCOCCOCCOCCOCCOCCOc5ccc6c(c5)CN(C5CCC(=O)NC5=O)C6=O)CC4)ncc3Cl)ccc2n(C)c1=O (stereo not drawn) [compound 67, 2-((6-((5-chloro-2-(4-((17-((2-(2,6-dioxopiperidin-3-yl)-1-oxoisoindolin-5-yl)oxy)-3,6,9,12,15-pentaoxaheptadecyl)oxy)piperidin-1-yl)pyrimidin-4-yl)amino)-1-methyl-2-oxo-1,2-dihydroquinolin-3-yl)oxy)-N-methylacetamide] | > 100
CNC(=O)COc1cc2cc(Nc3nc(N4CCC(OCCOCCOCCOCCOCCOCCOc5ccc6c(c5)C(=O)N(C5CCC(=O)NC5=O)C6=O)CC4)ncc3Cl)ccc2n(C)c1=O (stereo not drawn) [compound 68, 2-((6-((5-chloro-2-(4-((17-((2-(2,6-dioxopiperidin-3-yl)-1,3-dioxoisoindolin-5-yl)oxy)-3,6,9,12,15-pentaoxaheptadecyl)oxy)piperidin-1-yl)pyrimidin-4-yl)amino)-1-methyl-2-oxo-1,2-dihydroquinolin-3-yl)oxy)-N-methylacetamide] | > 100
CNC(=O)COc1cc2cc(Nc3nc(N4CCC(OCCOCCOCCOCCOCCNc5cccc6c5C(=O)N(C5CCC(=O)NC5=O)C6=O)CC4)ncc3Cl)ccc2n(C)c1=O (stereo not drawn) [compound 69, 2-((6-((5-chloro-2-(4-((14-((2-(2,6-dioxopiperidin-3-yl)-1,3-dioxoisoindolin-4-yl)amino)-3,6,9,12-tetraoxatetradecyl)oxy)piperidin-1-yl)pyrimidin-4-yl)amino)-1-methyl-2-oxo-1,2-dihydroquinolin-3-yl)oxy)-N-methylacetamide] | > 100

Further lines, results first:

DC50 [nM] | Compound
> 100 | CNC(=O)COc1cc2cc(Nc3nc(N4CCC(OCCOCCOCC(=O)N[C@H](C(=O)N5C[C@H](O)C[C@H]5C(=O)NCc5ccc(-c6scnc6C)cc5)C(C)(C)C)CC4)ncc3Cl)ccc2n(C)c1=O [compound 70, (2S,4R)-1-((S)-2-(2-(2-(2-((1-(5-chloro-4-((1-methyl-3-(2-(methylamino)-2-oxoethoxy)-2-oxo-1,2-dihydroquinolin-6-yl)amino)pyrimidin-2-yl)piperidin-4-yl)oxy)ethoxy)ethoxy)acetamido)-3,3-dimethylbutanoyl)-4-hydroxy-N-(4-(4-methylthiazol-5-yl)benzyl)pyrrolidine-2-carboxamide]
50 to 100 | CNC(=O)COc1cc2cc(Nc3nc(N4CCC(OCCOc5ccc6c(c5)CN(C5CCC(=O)NC5=O)C6=O)CC4)ncc3Cl)ccc2n(C)c1=O (stereo not drawn) [compound 71, 2-((6-((5-chloro-2-(4-(2-((2-(2,6-dioxopiperidin-3-yl)-1-oxoisoindolin-5-yl)oxy)ethoxy)piperidin-1-yl)pyrimidin-4-yl)amino)-1-methyl-2-oxo-1,2-dihydroquinolin-3-yl)oxy)-N-methylacetamide]
50 to 100 | CNC(=O)COc1cc2cc(Nc3nc(N4CCC(OCCOc5ccc6c(c5)C(=O)N(C5CCC(=O)NC5=O)C6=O)CC4)ncc3Cl)ccc2n(C)c1=O (stereo not drawn) [compound 72, 2-((6-((5-chloro-2-(4-(2-((2-(2,6-dioxopiperidin-3-yl)-1,3-dioxoisoindolin-5-yl)oxy)ethoxy)piperidin-1-yl)pyrimidin-4-yl)amino)-1-methyl-2-oxo-1,2-dihydroquinolin-3-yl)oxy)-N-methylacetamide]
> 100 | CN1C(=O)CCc2cc(Nc3cc(OC4CCN(CCOCCOc5ccc6c(c5)C(=O)N(C5CCC(=O)NC5=O)C6=O)CC4)c([N+](=O)[O-])cc3Cl)ccc21 (stereo not drawn) [compound 73, 5-(2-(2-(4-(4-chloro-5-((1-methyl-2-oxo-1,2,3,4-tetrahydroquinolin-6-yl)amino)-2-nitrophenoxy)piperidin-1-yl)ethoxy)ethoxy)-2-(2,6-dioxopiperidin-3-yl)isoindoline-1,3-dione]
> 100 | O=C1CCC(N2C(=O)c3ccc(OCCOCCN4CCC(Oc5cc(Nc6ccc7c(c6)CCC(=O)N7)c(Cl)cc5[N+](=O)[O-])CC4)cc3C2=O)C(=O)N1 (stereo not drawn) [compound 74, 5-(2-(2-(4-(4-chloro-2-nitro-5-((2-oxo-1,2,3,4-tetrahydroquinolin-6-yl)amino)phenoxy)piperidin-1-yl)ethoxy)ethoxy)-2-(2,6-dioxopiperidin-3-yl)isoindoline-1,3-dione]
